Measured values taken from ChEMBL document CHEMBL1201862, “PubChem BioAssay data set” (2004).
Calls of active or inactive are those of the source.

What was measured:
[1] = biological target: T1, Heat shock factor protein 1 (Mus musculus, UniProt P38532); assay: inhibition of MG132-induced HSE-luciferase signal, confirmation, cell-based, NIH3T3, luminescence, dose retest (AID 2382); type: functional;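 further: NIH3T3 fibroblasts with HSF1-driven luciferase reporter stressed by proteasome inhibitor MG132; luminescence from HSF1-driven luciferase expression after 8 hours of MG132 stress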
T1 sequence (P38532 whole entry): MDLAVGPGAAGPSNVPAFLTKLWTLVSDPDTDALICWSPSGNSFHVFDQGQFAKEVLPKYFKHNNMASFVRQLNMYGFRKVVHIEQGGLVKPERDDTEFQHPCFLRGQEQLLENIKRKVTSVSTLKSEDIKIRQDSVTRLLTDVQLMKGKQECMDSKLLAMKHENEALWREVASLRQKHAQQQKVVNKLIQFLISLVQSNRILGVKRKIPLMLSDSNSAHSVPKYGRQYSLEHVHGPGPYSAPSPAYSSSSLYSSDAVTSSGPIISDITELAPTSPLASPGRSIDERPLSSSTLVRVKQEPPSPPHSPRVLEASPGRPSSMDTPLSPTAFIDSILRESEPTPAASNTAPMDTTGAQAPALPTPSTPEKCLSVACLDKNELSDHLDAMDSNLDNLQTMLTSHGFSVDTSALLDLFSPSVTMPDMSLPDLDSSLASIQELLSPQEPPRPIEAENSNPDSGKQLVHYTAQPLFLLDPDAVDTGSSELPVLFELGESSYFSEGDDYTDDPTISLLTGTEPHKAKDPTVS

cells [2] = settings: HEK293
[3] = biological target: T2, Beta-2 adrenergic receptor (Homo sapiens, UniProt P07550); assay: Dose response for HTS for Beta-2AR agonists via FAP method from Powderset3.; type: functional
T2 sequence (P07550 whole entry): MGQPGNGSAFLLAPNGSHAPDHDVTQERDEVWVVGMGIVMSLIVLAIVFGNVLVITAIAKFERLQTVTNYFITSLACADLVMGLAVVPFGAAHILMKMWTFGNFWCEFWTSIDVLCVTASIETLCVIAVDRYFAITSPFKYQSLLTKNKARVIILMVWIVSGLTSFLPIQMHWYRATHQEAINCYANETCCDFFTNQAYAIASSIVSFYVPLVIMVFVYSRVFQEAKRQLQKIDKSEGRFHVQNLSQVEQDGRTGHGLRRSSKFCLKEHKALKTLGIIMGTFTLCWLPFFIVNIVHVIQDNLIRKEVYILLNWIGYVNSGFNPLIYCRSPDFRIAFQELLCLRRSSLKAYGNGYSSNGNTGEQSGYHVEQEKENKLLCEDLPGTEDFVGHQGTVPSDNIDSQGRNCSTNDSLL

[4] = biological target: T2, Beta-2 adrenergic receptor; assay: beta2AR agonists driving receptor internalization, dose response, cell-based, FAP fluorogen, flow cytometry, cherry pick 1 (AID 588763); type: functional
[5] = growth suppression of beta-catenin-knockout colon cells, dose response, cell-based, HCT116, human colon tumor (AID 1045); type: functional;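 further: HCT116 colon tumor cells with beta catenin knocked out; cells exposed to compound for 60 hours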
[6] = cytotoxicity in HEK-293T cells, dose response, cytotoxicity control for BCR NF-kB inhibitor project, luminescence, B-cell screen hits (AID 489021); type: functional, cell-based;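 further: HEK-293T cells carrying an NF-kB luciferase reporter; cells exposed to compound for about 14 hours before viability readout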
[7] = biological target: COUP transcription factor 2 (Homo sapiens, UniProt P24468); assay: Luminescence-based cell-based high throughput dose response assay to identify inhibitors of COUP-TFII (NR2F2).; type: functional;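 further: HEK293 cells transiently cotransfected with COUP-TFII expression vector and reporter; luciferase reporter luminescence driven by COUP-TFII from the pX2-168 reporter plasmid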
Chain of COUP transcription factor 2 (P24468 whole entry): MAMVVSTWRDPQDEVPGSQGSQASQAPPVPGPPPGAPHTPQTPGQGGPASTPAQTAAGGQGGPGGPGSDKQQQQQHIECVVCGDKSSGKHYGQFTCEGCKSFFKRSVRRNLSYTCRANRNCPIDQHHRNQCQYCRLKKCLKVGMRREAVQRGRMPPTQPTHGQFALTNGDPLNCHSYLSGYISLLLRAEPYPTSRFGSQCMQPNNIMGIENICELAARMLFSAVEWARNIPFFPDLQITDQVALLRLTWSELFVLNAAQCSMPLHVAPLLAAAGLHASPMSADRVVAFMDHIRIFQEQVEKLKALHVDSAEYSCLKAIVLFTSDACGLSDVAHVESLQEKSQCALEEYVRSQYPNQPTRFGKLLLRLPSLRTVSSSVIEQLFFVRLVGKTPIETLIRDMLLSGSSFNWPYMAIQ

[8] = growth suppression of PTEN-null colon cells, dose response, cell-based, HCT116 PTEN knockout (AID 1047); type: functional;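 further: HCT116 colon tumor cells with PTEN knocked out; cells exposed to compound for 60 hours before readout; potency for loss of cell viability measured by luminescence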
[9] = biological target: ADP-ribosylation factor GTPase-activating protein 1 (Rattus norvegicus, UniProt Q62848); assay: Fluorescence polarization-based biochemical high throughput dose response screening assay to identify inhibitors of ADP-ribosylation factor GTPase activating protein 1 (ARFGAP1).; type: functional
Chain of ADP-ribosylation factor GTPase-activating protein 1 (Q62848 whole entry): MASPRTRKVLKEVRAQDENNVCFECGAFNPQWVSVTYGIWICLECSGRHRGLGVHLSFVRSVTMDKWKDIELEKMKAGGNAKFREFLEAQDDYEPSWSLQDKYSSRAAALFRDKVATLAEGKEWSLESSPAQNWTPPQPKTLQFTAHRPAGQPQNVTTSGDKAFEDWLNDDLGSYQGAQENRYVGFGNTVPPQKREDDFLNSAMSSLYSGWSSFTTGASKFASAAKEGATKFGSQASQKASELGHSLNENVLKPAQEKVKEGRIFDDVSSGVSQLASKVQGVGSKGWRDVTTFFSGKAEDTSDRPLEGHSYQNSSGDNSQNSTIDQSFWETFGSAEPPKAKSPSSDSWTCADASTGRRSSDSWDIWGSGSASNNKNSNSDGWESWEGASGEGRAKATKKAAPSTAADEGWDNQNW

[10] = biological target: 1-phosphatidylinositol 4,5-bisphosphate phosphodiesterase beta-3 (Homo sapiens, UniProt Q01970); assay: Fluorescence-based biochemical high throughput dose response assay to identify inhibitors of phospholipase C isozymes (PLC-B3).
Chain of 1-phosphatidylinositol 4,5-bisphosphate phosphodiesterase beta-3 (Q01970 whole entry): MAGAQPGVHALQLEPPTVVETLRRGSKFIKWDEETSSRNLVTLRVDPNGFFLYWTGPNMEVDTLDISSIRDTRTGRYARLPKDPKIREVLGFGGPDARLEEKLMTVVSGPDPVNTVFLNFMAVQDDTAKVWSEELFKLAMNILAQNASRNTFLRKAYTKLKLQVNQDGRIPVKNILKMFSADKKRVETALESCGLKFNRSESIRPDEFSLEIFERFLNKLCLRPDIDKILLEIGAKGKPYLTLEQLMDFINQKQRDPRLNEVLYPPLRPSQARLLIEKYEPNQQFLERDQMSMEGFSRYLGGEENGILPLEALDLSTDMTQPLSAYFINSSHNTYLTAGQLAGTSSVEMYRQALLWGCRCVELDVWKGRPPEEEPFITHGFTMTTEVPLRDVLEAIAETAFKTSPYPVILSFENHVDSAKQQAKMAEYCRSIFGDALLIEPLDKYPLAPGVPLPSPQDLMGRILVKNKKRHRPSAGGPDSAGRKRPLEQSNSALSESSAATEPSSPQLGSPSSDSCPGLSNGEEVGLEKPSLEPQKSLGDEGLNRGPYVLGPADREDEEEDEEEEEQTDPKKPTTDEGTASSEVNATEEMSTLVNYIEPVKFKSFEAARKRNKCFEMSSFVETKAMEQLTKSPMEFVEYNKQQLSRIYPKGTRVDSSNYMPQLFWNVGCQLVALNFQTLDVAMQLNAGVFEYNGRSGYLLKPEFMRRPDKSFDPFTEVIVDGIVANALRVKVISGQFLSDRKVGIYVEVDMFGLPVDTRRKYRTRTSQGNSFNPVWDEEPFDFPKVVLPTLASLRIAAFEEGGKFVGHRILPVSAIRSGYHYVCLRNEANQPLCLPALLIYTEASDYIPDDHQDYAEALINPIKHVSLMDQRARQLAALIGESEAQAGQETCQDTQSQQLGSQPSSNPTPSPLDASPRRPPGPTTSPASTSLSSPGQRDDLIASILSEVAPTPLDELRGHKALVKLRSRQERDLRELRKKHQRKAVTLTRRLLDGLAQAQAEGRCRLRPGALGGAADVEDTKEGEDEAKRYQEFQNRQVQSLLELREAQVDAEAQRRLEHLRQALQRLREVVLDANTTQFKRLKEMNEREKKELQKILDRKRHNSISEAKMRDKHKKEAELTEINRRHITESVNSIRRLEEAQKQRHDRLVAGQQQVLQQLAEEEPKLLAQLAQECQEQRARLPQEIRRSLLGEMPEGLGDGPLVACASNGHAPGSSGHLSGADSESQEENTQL

[11] = biological target: 1-phosphatidylinositol 4,5-bisphosphate phosphodiesterase gamma-1 (Homo sapiens, UniProt P19174); assay: Counterscreen for inhibitors of phospholipase C isozymes (PLC-B3): Fluorescence-based biochemical high throughput dose response assay to identify inhibitors of phospholipase C isozymes (PLC-gamma1).
Chain of 1-phosphatidylinositol 4,5-bisphosphate phosphodiesterase gamma-1 (P19174 whole entry): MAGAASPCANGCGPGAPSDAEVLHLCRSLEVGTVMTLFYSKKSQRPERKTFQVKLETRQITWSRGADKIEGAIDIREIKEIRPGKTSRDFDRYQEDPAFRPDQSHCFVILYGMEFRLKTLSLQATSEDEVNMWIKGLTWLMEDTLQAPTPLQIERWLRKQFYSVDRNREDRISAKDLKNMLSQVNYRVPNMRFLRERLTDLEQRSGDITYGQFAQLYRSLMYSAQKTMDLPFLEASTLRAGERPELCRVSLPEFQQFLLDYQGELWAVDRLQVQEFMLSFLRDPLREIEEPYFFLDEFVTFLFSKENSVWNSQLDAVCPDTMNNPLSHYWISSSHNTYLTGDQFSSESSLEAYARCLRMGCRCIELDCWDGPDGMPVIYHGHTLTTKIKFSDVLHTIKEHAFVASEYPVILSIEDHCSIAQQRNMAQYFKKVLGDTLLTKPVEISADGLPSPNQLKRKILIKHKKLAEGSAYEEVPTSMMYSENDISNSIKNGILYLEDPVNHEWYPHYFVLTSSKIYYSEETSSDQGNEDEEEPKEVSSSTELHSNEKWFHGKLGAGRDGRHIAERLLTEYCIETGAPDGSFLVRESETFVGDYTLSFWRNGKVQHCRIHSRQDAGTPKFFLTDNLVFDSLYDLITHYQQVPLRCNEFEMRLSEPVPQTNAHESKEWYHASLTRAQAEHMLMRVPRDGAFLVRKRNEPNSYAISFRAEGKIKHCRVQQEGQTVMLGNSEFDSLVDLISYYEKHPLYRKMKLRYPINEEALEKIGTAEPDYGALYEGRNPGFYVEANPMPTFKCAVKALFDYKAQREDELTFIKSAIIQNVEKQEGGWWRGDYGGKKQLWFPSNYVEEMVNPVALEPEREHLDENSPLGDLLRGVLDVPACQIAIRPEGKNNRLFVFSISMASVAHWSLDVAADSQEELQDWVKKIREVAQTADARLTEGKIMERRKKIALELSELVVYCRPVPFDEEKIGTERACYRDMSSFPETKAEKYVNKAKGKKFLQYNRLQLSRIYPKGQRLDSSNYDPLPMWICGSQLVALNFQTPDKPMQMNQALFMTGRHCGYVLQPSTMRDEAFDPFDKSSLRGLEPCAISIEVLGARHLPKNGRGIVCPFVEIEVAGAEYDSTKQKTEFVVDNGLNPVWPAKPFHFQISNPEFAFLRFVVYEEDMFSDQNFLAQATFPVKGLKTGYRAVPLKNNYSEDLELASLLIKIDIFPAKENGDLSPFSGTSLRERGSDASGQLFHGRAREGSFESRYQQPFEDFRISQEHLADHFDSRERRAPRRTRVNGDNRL

cells [12] = type: functional, cell-based
[13] = biological target: T3, Trace amine-associated receptor 1 (Homo sapiens, UniProt Q96RJ0); assay: Fluorescence-based cell-based high throughput dose response assay to identify agonists of the human trace amine associated receptor 1 (TAAR1).; type: functional
T3 sequence (Q96RJ0 whole entry): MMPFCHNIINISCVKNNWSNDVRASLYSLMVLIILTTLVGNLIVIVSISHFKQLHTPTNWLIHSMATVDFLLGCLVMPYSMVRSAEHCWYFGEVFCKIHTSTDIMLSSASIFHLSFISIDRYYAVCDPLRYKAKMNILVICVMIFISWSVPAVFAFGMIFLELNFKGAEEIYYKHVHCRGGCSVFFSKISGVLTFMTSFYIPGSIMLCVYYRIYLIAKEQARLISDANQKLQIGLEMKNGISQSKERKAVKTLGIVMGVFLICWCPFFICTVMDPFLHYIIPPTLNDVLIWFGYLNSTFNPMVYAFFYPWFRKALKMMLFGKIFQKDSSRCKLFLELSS

cells [14] = type: functional, cell-based; remark: listed apart in the source
[15] = biological target: T3, Trace amine-associated receptor 1; assay: Counterscreen for agonists of the human trace amine associated receptor 1 (hTAAR1): Fluorescence-based cell-based high throughput dose response assay to identify hTAAR1 agonist that also desensitize TAAR1 receptor response.; type: functional
[16] = biological target: Disintegrin and metalloproteinase domain-containing protein 17 (Homo sapiens, UniProt P78536); assay: ADAM17 protease inhibitors, dose response, counter-screen for ADAM10 exosite inhibitor project, biochemical, quenched FRET substrate (AID 743253)
Chain of Disintegrin and metalloproteinase domain-containing protein 17 (P78536 whole entry, the tested form may be a part): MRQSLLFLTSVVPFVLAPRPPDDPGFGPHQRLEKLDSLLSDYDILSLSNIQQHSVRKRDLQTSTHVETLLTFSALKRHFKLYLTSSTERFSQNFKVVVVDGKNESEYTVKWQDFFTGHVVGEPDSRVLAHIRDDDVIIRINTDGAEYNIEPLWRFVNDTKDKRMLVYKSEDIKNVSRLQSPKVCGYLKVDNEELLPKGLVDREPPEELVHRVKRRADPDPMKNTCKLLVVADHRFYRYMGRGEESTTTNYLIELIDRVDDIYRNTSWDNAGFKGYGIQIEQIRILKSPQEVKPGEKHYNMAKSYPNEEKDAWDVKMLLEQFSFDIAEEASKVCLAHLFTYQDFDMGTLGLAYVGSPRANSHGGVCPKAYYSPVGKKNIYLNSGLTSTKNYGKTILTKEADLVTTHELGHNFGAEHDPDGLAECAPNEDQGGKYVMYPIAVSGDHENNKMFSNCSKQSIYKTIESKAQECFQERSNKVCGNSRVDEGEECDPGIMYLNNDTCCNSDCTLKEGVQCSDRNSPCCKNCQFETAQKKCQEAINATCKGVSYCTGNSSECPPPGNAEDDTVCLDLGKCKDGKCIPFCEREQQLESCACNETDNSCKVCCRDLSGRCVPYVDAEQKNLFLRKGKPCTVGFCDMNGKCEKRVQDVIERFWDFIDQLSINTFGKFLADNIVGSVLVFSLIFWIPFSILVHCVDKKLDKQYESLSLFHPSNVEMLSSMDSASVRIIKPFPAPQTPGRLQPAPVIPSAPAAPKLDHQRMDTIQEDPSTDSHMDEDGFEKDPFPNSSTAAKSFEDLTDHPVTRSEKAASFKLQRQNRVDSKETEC

[17] = ADAM10 inhibitors, peptide cleavage, dose response, biochemical, QFRET (AID 743254);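 further: ADAM10 enzyme with the DM2 quenched FRET peptide as substrate; EDANS fluorescence gain as the protease cuts the substrate; inhibitor potency against ADAM10 proteolytic activity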
[18] = biological target: T4, Calpain-2 catalytic subunit (Sus scrofa, UniProt P43367); assay: pig calpain II inhibitor potency, dose response, biochemical, fluorogenic peptide substrate (AID 1420); type: functional
T4 sequence (P43367 whole entry): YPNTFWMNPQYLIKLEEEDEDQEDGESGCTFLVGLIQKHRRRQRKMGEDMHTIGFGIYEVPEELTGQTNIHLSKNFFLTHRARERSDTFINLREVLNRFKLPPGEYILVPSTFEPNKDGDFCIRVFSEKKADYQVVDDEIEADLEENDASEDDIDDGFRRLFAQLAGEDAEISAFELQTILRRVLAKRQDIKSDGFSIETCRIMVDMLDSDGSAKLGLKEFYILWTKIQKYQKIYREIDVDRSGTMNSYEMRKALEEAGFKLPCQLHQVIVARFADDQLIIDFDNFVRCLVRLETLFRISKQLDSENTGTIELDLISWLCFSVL

[19] = HEK293T cytotoxicity, dose response, cytotoxicity control for miR-122 modulator project, cell-based, inhibitor set, cherry-pick, set 2 (AID 720697); type: functional
[20] = HEK293T cytotoxicity, dose response, cytotoxicity control for miR-122 modulator project, cell-based, activator set, cherry-pick (AID 720690); type: functional;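 further: HEK293T human cells scored for general mammalian cytotoxicity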
[21] = miR-122 activators in hepatoma reporter cells, dose response, cell-based, Huh7 psiCHECK-miR122, Renilla luciferase, cherry-picked (AID 651956); type: functional;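 further: huh7 hepatoma cells stably carrying a psiCHECK-2 miR-122 sensor plasmid; renilla luciferase signal reporting endogenous miR-122 activity after 48 h compound exposure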
[22] = biological target: Endoplasmic reticulum aminopeptidase 1 (Homo sapiens, UniProt Q9NZ08); assay: ERAP1 aminopeptidase inhibitors, dose response, biochemical, cherry-pick, set 2, plate reader (AID 743314)
[23] = biological target: Fructose-bisphosphate aldolase (Mycobacterium tuberculosis, UniProt P9WQA3); assay: Fluorescence-based biochemical high throughput dose response assay for inhibitors of the fructose-bisphosphate aldolase (FBA) of M. tuberculosis.; type: functional
Chain of Fructose-bisphosphate aldolase (P9WQA3 whole entry): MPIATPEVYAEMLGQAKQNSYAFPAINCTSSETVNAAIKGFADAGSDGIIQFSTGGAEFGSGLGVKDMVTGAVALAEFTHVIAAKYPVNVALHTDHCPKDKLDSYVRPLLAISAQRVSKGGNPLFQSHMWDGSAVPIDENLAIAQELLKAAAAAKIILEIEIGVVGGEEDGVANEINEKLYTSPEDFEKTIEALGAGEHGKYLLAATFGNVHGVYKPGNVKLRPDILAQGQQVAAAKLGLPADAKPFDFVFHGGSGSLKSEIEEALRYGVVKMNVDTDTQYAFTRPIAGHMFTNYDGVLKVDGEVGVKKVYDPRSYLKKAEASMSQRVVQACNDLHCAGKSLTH

[24] = inhibitors of intracellular T. cruzi replication, confirmation, NIH3T3 host cells, beta-gal luminescence (AID 2044); type: functional, cell-based;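 further: intracellular parasites grown in NIH/3T3 mouse fibroblasts as host cells; luminescent beta-galactosidase reporter signal from transgenic T. cruzi replicating inside host cells; inhibitors lower the luminescence signal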
[25] = cytotoxicity toward NIH3T3 fibroblasts, dose response, counter-screen, cell-based, ATP luminescence, mouse fibroblasts (AID 2010); type: functional;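 further: cells exposed to compound for about 90 hours before reading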

Cc1cc(-c2ccccc2)c2ccc(NC(=O)C(C)(C)C)nc2n1
EC50 [1]: > 195 µM (not active)
AC50 (cells [2]): > 52 µM (inactive)

CC1(C)Cc2c(c(N3CCCC3)nc3sc4c(N5CCN(CCO)CC5)ncnc4c23)CO1
EC50 [3]: 1.71 µM (active)
EC50 [4]: 8.76 µM (active)

CN(CC1CCCO1)S(=O)(=O)c1ccc(C(=O)Nc2nc3cc4c(cc3s2)OCO4)cc1 (stereo not given)
EC50 [5]: 6.11 µM (active)
IC50 [6]: > 80 µM (inactive)
IC50 [7]: 2.68 µM (active)
EC50 [8]: 9.25 µM (active)

CCN1CCN(C(=O)Cn2ncc3c4cc(C)ccc4nc-3c2O)CC1
IC50 [9]: 82.7 µM (inactive)

CCn1c(=S)sc2c(=O)n(CC(=O)Nc3cccc(Cl)c3)c(C)nc21
IC50 [10]: > 122 µM (inactive)
IC50 [11]: > 122 µM (inactive)

Fc1ccccc1N1CCN(C(c2cccs2)c2nnnn2CCc2ccccc2)CC1 (stereo not given)
EC50 (cells [12]): > 29.9 µM (inactive)
EC50 [13]: 4.06 µM (active)
IC50 (cells [14]): > 29.9 µM (inactive)
IC50 [15]: 6.73 µM (active)

O=C(COC(=O)CCCSc1nc2ccccc2[nH]1)Nc1ccc(Oc2ccccc2)cc1
IC50 [16]: > 69.5 µM (inactive)
IC50 [17]: 8.39 µM (active)
IC50 [18]: 7.16 µM (not active)

CCOC(=O)N1CCC(NC(=O)c2ccc3c(c2)sc2nc(-c4ccccc4)cn23)CC1
AC50 [19]: 13.6 µM (active)
AC50 [20]: 12.3 µM (active)
AC50 [21]: 1.26 µM (active)

Cc1cc(N(C)Cc2ccccc2)nc2cc(O)ccc12
AC50 [22]: 11.3 µM (active)

Nc1nc2n(n1)C(c1cccs1)CC(c1ccc(Br)cc1)N2 (stereo not given)
IC50 [23]: 4.61 µM (active)
EC50 [24]: 4.37 µM (active)
EC50 [25]: > 60 µM (not active)
